Measured values reported in the Kinase Knowledgebase extract (Sharma et al. 2016).
In brackets after ≈: the same amount, converted by molar mass.

Biological target: EGFR (human) (UniProt P00533)
Conditions: a431

EGFR (human), sequence (P00533 whole entry, looked up): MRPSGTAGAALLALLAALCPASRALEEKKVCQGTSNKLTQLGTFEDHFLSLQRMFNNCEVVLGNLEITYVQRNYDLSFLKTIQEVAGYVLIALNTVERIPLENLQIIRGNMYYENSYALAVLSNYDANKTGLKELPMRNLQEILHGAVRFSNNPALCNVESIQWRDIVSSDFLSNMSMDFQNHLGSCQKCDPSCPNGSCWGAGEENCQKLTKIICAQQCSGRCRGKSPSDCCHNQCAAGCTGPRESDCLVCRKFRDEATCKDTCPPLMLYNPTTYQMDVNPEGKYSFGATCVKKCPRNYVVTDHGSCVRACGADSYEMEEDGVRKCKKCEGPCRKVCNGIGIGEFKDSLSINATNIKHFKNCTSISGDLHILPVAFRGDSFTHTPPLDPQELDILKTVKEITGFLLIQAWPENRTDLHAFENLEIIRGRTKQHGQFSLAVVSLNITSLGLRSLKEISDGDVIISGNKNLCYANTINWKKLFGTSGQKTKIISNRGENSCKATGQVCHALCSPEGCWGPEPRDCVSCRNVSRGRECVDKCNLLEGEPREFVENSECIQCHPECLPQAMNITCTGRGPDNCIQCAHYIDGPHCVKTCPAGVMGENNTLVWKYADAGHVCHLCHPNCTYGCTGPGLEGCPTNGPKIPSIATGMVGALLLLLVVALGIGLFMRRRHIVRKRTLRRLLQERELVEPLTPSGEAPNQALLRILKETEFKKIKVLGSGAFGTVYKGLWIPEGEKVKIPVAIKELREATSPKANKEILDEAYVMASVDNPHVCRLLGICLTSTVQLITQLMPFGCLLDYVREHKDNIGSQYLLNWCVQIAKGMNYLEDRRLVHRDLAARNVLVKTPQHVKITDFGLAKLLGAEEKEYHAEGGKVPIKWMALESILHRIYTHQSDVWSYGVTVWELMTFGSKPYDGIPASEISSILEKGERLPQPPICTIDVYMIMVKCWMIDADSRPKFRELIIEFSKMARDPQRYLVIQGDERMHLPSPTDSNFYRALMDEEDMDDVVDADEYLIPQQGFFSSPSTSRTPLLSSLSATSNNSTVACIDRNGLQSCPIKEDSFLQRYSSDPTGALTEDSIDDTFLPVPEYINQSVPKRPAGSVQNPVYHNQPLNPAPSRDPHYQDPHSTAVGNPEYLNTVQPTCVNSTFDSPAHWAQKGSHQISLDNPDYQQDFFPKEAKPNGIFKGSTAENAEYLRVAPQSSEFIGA

| SMILES | IC50 |
| --- | --- |
| COc1cc2ncc(C#N)c(Nc3ccc(Sc4nccn4C)c(Cl)c3)c2cc1NC(=O)/C=C/CN(C)C | 0.02 µg/mL (≈ 0.0365 µM) |
| COc1cc2ncc(C#N)c(Nc3ccc(-n4ccnc4)c(Cl)c3)c2cc1N | 1.63 µg/mL (≈ 4.17 µM) |
| CCOc1cc2ncc(C#N)c(Nc3ccc(Sc4nc(-c5ccccc5)cs4)c(C(F)(F)F)c3)c2cc1NC(=O)/C=C/CN(C)C | 0.3 µg/mL (≈ 0.445 µM) |
| CCOc1cc2ncc(C#N)c(Nc3ccc(Nc4nnc(C(F)(F)F)s4)c(Cl)c3)c2cc1[N+](=O)[O-] | 1.79 µg/mL (≈ 3.34 µM) |
| COc1cc2ncc(C#N)c(Nc3ccc(N(Cc4cccnc4)C(C)=O)c(Cl)c3)c2cc1[N+](=O)[O-] | 1.6 µg/mL (≈ 3.18 µM) |
| COc1cc2ncc(C#N)c(Nc3ccc(Sc4nc5ccccc5c(=O)[nH]4)c(Cl)c3)c2cc1[N+](=O)[O-] | 2.28 µg/mL (≈ 4.29 µM) |
| COc1cc2c(Nc3ccc4cn[nH]c4c3)c(C#N)cnc2cc1OCCCN1CCOCC1 | > 5 µg/mL |

Next, values leading:

| IC50 | SMILES |
| --- | --- |
| 3.68 µg/mL (≈ 7.15 µM) | COc1cc2ncc(C#N)c(Nc3ccc(N(Cc4cccnc4)C(C)=O)c(Cl)c3)c2cc1NC(C)=O |
| > 5 µg/mL | COc1cc2ncc(C#N)c(Nc3ccc(N(Cc4cccnc4)C(C)=O)c(Cl)c3)c2cc1N |
| 0.728 µg/mL (≈ 1.18 µM) | CCOc1cc2ncc(C#N)c(Nc3ccc(Nc4nnc(C(F)(F)F)s4)c(Cl)c3)c2cc1NC(=O)/C=C/CN(C)C |
